Source: patent publication US4882349A, “Pyrrolacetic amides having antiinflammatory activity” (priority 1982, dated 1989)

Assays:
[1] = test system: phenyl-p-quinone-induced writhing (abdominal contractions); assay: phenylquinone-induced writhing test (analgesic activity), compound given 30 min before phenyl-p-quinone; type: in vivo, male Wistar rats
Method: Male Wistar rats weighing 110±5 g were caged for 10 days at 22±1° C. and given a balanced diet with free access to water. Twenty-four hours before the experiment the animals were randomized into groups of 10 and fasted for 14 hours but with free access to water. Each dose was tested in 3 groups of rats. Thirty minutes following administration either orally or parenterally of the products to be tested and the vehicle alone (0.5% carboxymethyl-cellulose in physiological saline) in the control animals, each rat was given 2 ml of a 5% absolute ethanol aqueous solution containing 0.36% of phenyl-p-quinone (Sigma Chemical Company) in order to provoke writhings. Fifteen minutes after administration of phenyl-p-quinone the number of contractions were counted for 20 minutes. The inhibiting effect of the compounds under examination on the abdominal contractions induced by phenyl-p-quinone was calculated by the following formula: % protection= [formula]
Table V lists the tested compounds, doses, routes of administration and their efficacy expressed as percentage of protection, taking into account that phenyl-p-quinone was administered thirty minutes after the compounds.

[2] = test system: carrageenin-induced oedema; assay: carrageenin-induced oedema test (anti-inflammatory activity); type: in vivo, albino male Wistar rats
[3] = test system: cough provoked by mechanical stimulation of the tracheal bifurcation mucosa; assay: antitussive activity, mechanically provoked coughing; type: in vivo, albino Guinea-pigs; settings: 1 h after administration
Method: The antitussive effect on albino Guinea-pigs weighing 300 g was evaluated using the method described by Y. Kase (Selected Pharmacological Testing Methods, p.363, Marcel Dekker Inc., New York, 1968). Each dose was tested in a group of animals with a Y cannula inserted into the trachea. In order to provoke coughing, the mucosa of the tracheal bifurcation was mechanically stimulated by insertion of a wild boar's hair through an opening in the cannula, while the other opening was connected to a kymograph to plot the amplitude and/or frequency. The reduction in the number of coughs was evaluated at one hour after administration of the compounds under examination by following the plottings for twenty minutes and comparing the response of the control animals.

[4] = test system: mucus secreted by the respiratory airway; assay: antisecretory activity, respiratory mucus secretion; type: in vivo, albino male New Zealand rabbits; settings: vs control group
Method: The experiment was carried out in accordance with the method described by Y. Kase (Folia Pharmacol. Jap. 73: 605, 1977) for the purpose of investigating whether or not the compounds under examination determine changes in the volume of the mucus secreted by the respiratory airway. Groups of four albino male New Zealand rabbits (mean weight: 2.5 kg) were used for testing each dose per single group. The animals were anesthetized with urethane (1.1 g/ks b.w.) via the intraperitoneal route and a Y cannula was inserted into the trachea. In order to stimulate mucous secretion a humidifier was connected to the cannula permitting the animals to spontaneously breathe air with 100% humidity at a constant temperature of 39° C. The secreted mucus was collected through another opening in the cannula and measured at three and six hours after administration of the compounds under examination or of the vehicle alone administered in the order of […] (controls). Calculation of the increase or decrease in mucous secretion was based upon the percentage differences between the groups treated with the compounds under examination and the control group. Table VII gives the percentage differences in mucous secretion, and the tested compounds with relative doses and routes of administration.

Compound: CCOC(=O)c1ccc(NC(=O)Cc2ccc(C(=O)c3ccc(C)cc3)n2C)cc1 [Compound 1-h, 1-methyl-5-p-toluoylpyrrole-2-N-(4-carboxyethyl-phenyl) acetamide]
- % Protection ([1]; 5 mg/Kg i.p.): 18.0%
- % Protection ([1]; 5 mg/Kg per os): 16.2%
- % Protection ([1]; 10 mg/Kg i.p.): 44.0%
- % Protection ([1]; 10 mg/Kg per os): 37.9%
- % Protection ([1]; 20 mg/Kg i.p.): 79.0%
- % Protection ([1]; 20 mg/Kg per os): 70.1%
- oedema % inhibition ([2]; 25 mg/Kg per os, 2 h): 28.9%
- oedema % inhibition ([2]; 25 mg/Kg per os, 4 h): 30.1%
- oedema % inhibition ([2]; 25 mg/Kg per os, 6 h): 29.0%
- oedema % inhibition ([2]; 25 mg/Kg per os, 24 h): 8.3%
- oedema % inhibition ([2]; 25 mg/Kg per os, 48 h): 0.0%
- oedema % inhibition ([2]; 25 mg/Kg per os, 72 h): 0.0%
- oedema % inhibition ([2]; 25 mg/Kg, Table IV (route not given), 2 h): 30.1%
- oedema % inhibition ([2]; 25 mg/Kg, Table IV (route not given), 4 h): 27.9%
- oedema % inhibition ([2]; 25 mg/Kg, Table IV (route not given), 6 h): 29.0%
- oedema % inhibition ([2]; 25 mg/Kg, Table IV (route not given), 24 h): 13.0%
- oedema % inhibition ([2]; 25 mg/Kg, Table IV (route not given), 48 h): 0.0%
- oedema % inhibition ([2]; 25 mg/Kg, Table IV (route not given), 72 h): 0.0%
- oedema % inhibition ([2]; 50 mg/Kg per os, 2 h): 48.9%
- oedema % inhibition ([2]; 50 mg/Kg per os, 4 h): 49.0%
- oedema % inhibition ([2]; 50 mg/Kg per os, 6 h): 47.1%
- oedema % inhibition ([2]; 50 mg/Kg per os, 24 h): 9.9%
- oedema % inhibition ([2]; 50 mg/Kg per os, 48 h): 0.0%
- oedema % inhibition ([2]; 50 mg/Kg per os, 72 h): 0.0%
- oedema % inhibition ([2]; 50 mg/Kg, Table IV (route not given), 2 h): 50.2%
- oedema % inhibition ([2]; 50 mg/Kg, Table IV (route not given), 4 h): 51.0%
- oedema % inhibition ([2]; 50 mg/Kg, Table IV (route not given), 6 h): 47.0%
- oedema % inhibition ([2]; 50 mg/Kg, Table IV (route not given), 24 h): 15.1%
- oedema % inhibition ([2]; 50 mg/Kg, Table IV (route not given), 48 h): 0.0%
- oedema % inhibition ([2]; 50 mg/Kg, Table IV (route not given), 72 h): 0.0%
- oedema % inhibition ([2]; 100 mg/Kg per os, 2 h): 66.9%
- oedema % inhibition ([2]; 100 mg/Kg per os, 4 h): 67.1%
- oedema % inhibition ([2]; 100 mg/Kg per os, 6 h): 69.0%
- oedema % inhibition ([2]; 100 mg/Kg per os, 24 h): 22.0%
- oedema % inhibition ([2]; 100 mg/Kg per os, 48 h): 13.0%
- oedema % inhibition ([2]; 100 mg/Kg per os, 72 h): 0.0%
- oedema % inhibition ([2]; 100 mg/Kg, Table IV (route not given), 2 h): 70.1%
- oedema % inhibition ([2]; 100 mg/Kg, Table IV (route not given), 4 h): 68.9%
- oedema % inhibition ([2]; 100 mg/Kg, Table IV (route not given), 6 h): 66.0%
- oedema % inhibition ([2]; 100 mg/Kg, Table IV (route not given), 24 h): 19.0%
- oedema % inhibition ([2]; 100 mg/Kg, Table IV (route not given), 48 h): 10.0%
- oedema % inhibition ([2]; 100 mg/Kg, Table IV (route not given), 72 h): 0.0%
- % inhibition, cough amplitude ([3]; 50 mg/Kg i.p.): 20%
- % inhibition, cough frequency ([3]; 50 mg/Kg i.p.): 18%
- % inhibition, cough amplitude ([3]; 50 mg/Kg per os): 13%
- % inhibition, cough frequency ([3]; 50 mg/Kg per os): 10%
- % inhibition, cough amplitude ([3]; 75 mg/Kg i.p.): 29%
- % inhibition, cough frequency ([3]; 75 mg/Kg i.p.): 35%
- % inhibition, cough amplitude ([3]; 75 mg/Kg per os): 22%
- % inhibition, cough frequency ([3]; 75 mg/Kg per os): 18%
- % inhibition, cough amplitude ([3]; 100 mg/Kg i.p.): 45%
- % inhibition, cough frequency ([3]; 100 mg/Kg i.p.): 53%
- % inhibition, cough amplitude ([3]; 100 mg/Kg per os): 40%
- % inhibition, cough frequency ([3]; 100 mg/Kg per os): 50%
- % difference in mucus secretion ([4]; 50 mg/Kg i.p., 3 h): -8%
- % difference in mucus secretion ([4]; 50 mg/Kg i.p., 6 h): -3%
- % difference in mucus secretion ([4]; 50 mg/Kg per os, 3 h): -5%
- % difference in mucus secretion ([4]; 50 mg/Kg per os, 6 h): 0.0%
- % difference in mucus secretion ([4]; 75 mg/Kg i.p., 3 h): -26%
- % difference in mucus secretion ([4]; 75 mg/Kg i.p., 6 h): -20%
- % difference in mucus secretion ([4]; 75 mg/Kg per os, 3 h): -19%
- % difference in mucus secretion ([4]; 75 mg/Kg per os, 6 h): -16%
- % difference in mucus secretion ([4]; 100 mg/Kg i.p., 3 h): -41%
- % difference in mucus secretion ([4]; 100 mg/Kg i.p., 6 h): -38%
- % difference in mucus secretion ([4]; 100 mg/Kg per os, 3 h): -39%
- % difference in mucus secretion ([4]; 100 mg/Kg per os, 6 h): -32%
